Measurements published in PMC9841532, “Exploring the Effect of Halogenation in a Series of Potent and Selective A2B Adenosine Receptor Antagonists” (Journal of Medicinal Chemistry, 2022).

Tested on: human peripheral blood mononuclear cells (PBMCs)
Test: Proliferation of CFSE-labeled activated PBMCs in the presence of adenosine
Assay type: cell-based
Conditions: PBMCs + anti-CD3/CD28 + IL-2 + Ado 0.1 mM + compound 15 μM, 3 days
Excerpt: To gain evidence supporting the role of the here optimized A2BAR antagonists in the context of cancer immunotherapy, it was decided to evaluate the effect of two representative compounds (16b and 16j) in the proliferative activity of a prototypical immune cell. The human peripheral blood mononuclear cells (PBMCs) were selected for the study; they are critical components of the immune system and are involved in both humoral and cell-mediated immunity. Ado-mediated blockade of PBMC proliferation is well documented and characterized;[51],[52] we therefore investigated whether our A2BAR antagonists (16b and 16j) can reverse the blockade of ADO-mediated proliferation in human PBMCs. PBMCs, isolated from a healthy donor, were labeled with carboxyfluorescein succinimidyl ester (CFSE) and then activated by adding anti-CD3/CD28 antibodies and interleukin 2 (IL-2). CFSE is a cell dye that allows for the determination of cell proliferation, as dividing cells progressively lose fluorescence.
Figure 10 Effect of compounds 16b and 16j on the proliferation of PBMCs stimulated with antiCD3/CD28 + IL-2 in the presence of adenosine (ADO). […] The frequency of proliferating cells (CFSE^dim) as well as their median fluorescence intensities were quantified and ratios calculated against the values of stimulated PBMCs with no further treatment. […]

SMILES | frequency of proliferating cells (CFSEdim) [%]
CC1=C(C(=O)OC(C)C)C(c2ccco2)n2c(nc3cc(F)ccc32)N1 (centres unmarked) [16b] | 9.14
CC1=C(C(=O)OC(C)C)C(c2ccco2)n2c(nc3cc(Cl)ccc32)N1 (centres unmarked) [16j] | 6.54
